In patent US12351597B2, “Substituted biphenyl or phenylheteroaryl-mannosides as antagonists of FimH” (GLAXOSMITHKLINE INTELLECTUAL PROPERTY DEVELOPMENT LIMITED, priority 2019, dated 2025):

What was measured:
FimH = biological target: T1, FimH (Escherichia coli, UniProt Q1R2J4); experiment: Hemagglutination inhibition assay (HAI); type: cell-based; settings: HAI titer / EC>90: concentration reducing bacterial agglutination of guinea pig red blood cells by >90%; UTI89 bacteria
T1 construct: endogenous in cells; host or cells: E. coli UTI89 whole bacteria (piliated), with guinea pig red blood cells
From the text: “HAI titer or EC>90” is that concentration of the FimH inhibitor/antagonist which reduces the bacterial agglutination of guinea pig red blood cells by greater than 90%.
The activities of the Examples 1-40 compounds above as FimH antagonists/inhibitors were obtained by the following assay(s), and values are provided in Table 1. The values not provided mean that the activities have not yet been tested.
Hemagglutination Inhibition Assay (HAI)
The hemagglutination inhibition (HAI) assay was performed with UTI89 bacteria and guinea pig red blood cells, as previously described (S. J. Hultgren, W. R. Schwan, A. J. Schaeffer, J. L. Duncan Infect. Immun. 1986, 54, 613-620 and Jarvis, C.; Han, Z.; Kalas, V.; Klein, R.; Pinkner, J. S.; Ford, B.; Binkley, J.; Cusumano, C. K.; Cusumano, Z.; Mydock-McGrane, L.; Hultgren, S. J.; Janetka, J. W., ChemMedChem 2016, 11, 367-373). Values not listed were not tested.

[1] = Rat pharmacokinetics (IV infusion 1 mg/kg, then PO 5 mg/kg; blood and urine); type: in vivo, Male Wistar Han rats; settings: for PK DNAUC h * uM (DNAUC oral, dose normalized): PO 5 mg/kg, blood, AUC divided by dose in mg/kg; for bioavailability: male, Wistar Han, whole blood, oral bioavailability from dose-normalized AUC, PO 5 mg/kg vs IV infusion 1 mg/kg; for Ue % (Ue % po): percentage of oral dose eliminated unchanged in urine, or estimate from IV urinary % times oral bioavailability
From the text: General Assays for Obtaining AUC Oral h*μm, % F, and Ue % PO Values
Male Wistar Han rats were purchased from Vital River Laboratory Animal Technology Co. Ltd (Beijing, China). The animals were approx. 6-8 weeks old with body weights of 200-300 g on the dosing date. The animals were housed in a 12-hour light/12-hour dark cycle environment and had free access to food and water. All animals were fed prior to dosing. Studies were approved by the Pharmaron Institutional Animal Care and Use Committee (IACUC).
Test article was administered as an intravenous infusion for 1 hour (1 mg/kg) at 5 mL/kg/h. After 48 h, animals received a single oral dose (5 mg/kg, free form) at a dose volume of 10 mL/kg, respectively. Blood samples were collected at various time points after IV infusion and PO administrations. Urine samples were collected at various time points after IV infusion and PO administrations (for some compounds).
Test article was dissolved in DMSO with vortexing and sonification to obtain a stock solution. An aliquot of the stock solution was mixed with 10% HP-β-CD in saline with vortexing to obtain a solution with concentration at 0.2 mg/mL of test article.
Test article was added into 1% Methyl Cellulose with vortexing and sonication to obtain a homogeneous suspension with concentration at 0.5 mg/mL of test article.
For IV infusion (1 mg/kg) administration, blood samples were collected from each animal at 0, 0.25, 0.5, 0.75, 1, 1.08, 1.25, 1.5, 1.75, 2, 3, 5, 8, 12, 24 hour post-dose.
For PO (5 mg/kg) administration, blood samples were collected from each animal at 0, 0.25, 0.5, 1, 1.5, 2, 3, 4, 6, 8, 12, 24 hour post-dose.
Blood samples (50 μL) were collected from each animal via jugular vein. These blood samples were placed into tubes containing K2EDTA. Whole blood was mixed with same volume of water and inverted several times. The blood samples were stored at −75±15° C. until analysis.
For IV infusion (1 mg/kg) administration, urine samples were collected from each animal at 0-4, 4-8, 8-12, 12-24 hour post-dose.
For PO (5 mg/kg) administration, urine samples were collected (for some compounds) from each animal at 0-4, 4-8, 8-12, 12-24 hour post-dose.
55 μL of standards, 55 μL of QC samples or 55 μL of unknown samples (50 μL of blood or urine with 5 μL 50% acetonitrile) were mixed to 200 μL of acetonitrile containing IS (dexamethasone) to precipitate proteins. Then the samples were vortexed for 30 sec. After centrifugation at 4° C., 4700 rpm for 30 min, and 5 μL of the supernatant was injected into the LC-MS/MS system for quantitative analysis.
Test article blood and urine concentrations for each animal following IV infusion at 1 mg/kg and PO at 5 mg/kg were used to calculate pharmacokinetic parameters by employing a non-compartmental analysis (Phoenix™ WinNonlin® 7.0). The linear trapezoidal algorithm was used for AUC calculation. • AUC oral h*uM: Area under the curve (AUC) of drug concentration in blood vs. time (units: h*μM) following oral administration • DNAUC Dose normalized area under the curve is calculate by divided the area under the curve divided by the dose in the mg/kg • % F: Oral bioavailability (%) derived from the ratio of dose-normalized AUC following PO and IV administration • Ue % PO: Percentage of oral dose eliminated unchanged in urine or an estimate of that parameter generated from using the percentage of the iv dose eliminated in the urine times the oral bioavailability Production Methods: […]

Compound	HAI nM (FimH)	other results
Cc1cc(-c2ccc(N3CCCC3)nc2)ccc1O[C@H]1O[C@H](CO)[C@@H](O)[C@H](O)[C@@H]1O [Example 9]	“++++” (<50)	
Cc1cc(-c2ccnc(C(F)(F)F)n2)ccc1O[C@H]1O[C@H](CO)[C@@H](O)[C@H](O)[C@@H]1O [Example 14]	“+++” (50-200)	PK DNAUC h * uM (DNAUC oral, dose normalized) [1]: “+” (<01 h · μM)
Cc1cc(-c2cncc(C#N)c2)ccc1O[C@H]1O[C@H](CO)[C@@H](O)[C@H](O)[C@@H]1O [Example 37]	“++++” (<50)	PK DNAUC h * uM (DNAUC oral, dose normalized) [1]: “+” (<01 h · μM)
OC[C@H]1O[C@H](Oc2ccc(-c3nccc(C(F)(F)F)n3)cc2C(F)(F)F)[C@@H](O)[C@@H](O)[C@@H]1O [Example 13]	“+++” (50-200)	
Cc1cc(-c2cnc(C(F)(F)F)cn2)ccc1O[C@H]1O[C@H](CO)[C@@H](O)[C@H](O)[C@@H]1O [Example 1, (2R,3S,4S,5S,6R)-2-(Hydroxymethyl)-6-(2-methyl-4-(5-(trifluoromethyl)pyrazin-2-yl)phenoxy)tetrahydro-2H-pyran-3,4,5-triol]	“++++” (<50)	PK DNAUC h * uM (DNAUC oral, dose normalized) [1]: “+++” (>0.2 h · μM); bioavailability [1]: > 30%; Ue % (Ue % po) [1]: “+++” (>5%)
Cc1cc(-c2cncc(C(F)(F)F)n2)ccc1O[C@H]1O[C@H](CO)[C@@H](O)[C@H](O)[C@@H]1O [Example 34]	“+++” (50-200)	
N#Cc1cc(F)cc(-c2cc(F)c(O[C@H]3O[C@H](CO)[C@@H](O)[C@H](O)[C@@H]3O)c(C(F)(F)F)c2)c1 [Example 6]	“++++” (<50)	PK DNAUC h * uM (DNAUC oral, dose normalized) [1]: “+” (<01 h · μM)
Cc1cc(-c2ccnc(N(C)C)c2)ccc1O[C@H]1O[C@H](CO)[C@@H](O)[C@H](O)[C@@H]1O [Example 10]	“++++” (<50)	
OC[C@H]1O[C@H](Oc2c(F)cc(-c3cc(C(F)(F)F)ccn3)cc2C(F)(F)F)[C@@H](O)[C@@H](O)[C@@H]1O [Example 19]	“++++” (<50)	
OC[C@H]1O[C@H](Oc2ccc(-c3cc(C(F)(F)F)ccn3)cc2C(F)(F)F)[C@@H](O)[C@@H](O)[C@@H]1O [Example 18]	“+++” (50-200)	
Cc1cc(-c2cnc(N3CCCC3)cn2)ccc1O[C@H]1O[C@H](CO)[C@@H](O)[C@H](O)[C@@H]1O [Example 7]	“++++” (<50)	PK DNAUC h * uM (DNAUC oral, dose normalized) [1]: “+” (<01 h · μM)
N#Cc1cncc(-c2cc(F)c(O[C@H]3O[C@H](CO)[C@@H](O)[C@H](O)[C@@H]3O)c(C(F)(F)F)c2)c1 [Example 38]	“++++” (<50)	PK DNAUC h * uM (DNAUC oral, dose normalized) [1]: “+” (<01 h · μM)
Cc1cc(-c2cnccn2)ccc1O[C@H]1O[C@H](CO)[C@@H](O)[C@H](O)[C@@H]1O [Example 23]	“+++” (50-200)	
N#Cc1cc(F)cc(-c2ccc(O[C@H]3O[C@H](CO)[C@@H](O)[C@H](O)[C@@H]3O)c(Cl)c2)c1 [Example 11]	“+++” (50-200)	
COc1ccc(-c2ccc(O[C@H]3O[C@H](CO)[C@@H](O)[C@H](O)[C@@H]3O)c(C)c2)cn1 [Example 8]	“+++” (50-200)	
OC[C@H]1O[C@H](Oc2c(F)cc(-c3ccc(C(F)(F)F)nc3)cc2C(F)(F)F)[C@@H](O)[C@@H](O)[C@@H]1O [Example 35]		PK DNAUC h * uM (DNAUC oral, dose normalized) [1]: “+” (<01 h · μM)
OC[C@H]1O[C@H](Oc2c(F)cc(-c3nccc(C(F)(F)F)n3)cc2C(F)(F)F)[C@@H](O)[C@@H](O)[C@@H]1O [Example 36]	“++++” (<50)	

Compound	HAI nM (FimH)	other results
Cc1cc(-c2cnc(F)c(C(F)(F)F)c2)ccc1O[C@H]1O[C@H](CO)[C@@H](O)[C@H](O)[C@@H]1O [Example 31]	“+++” (50-200)	
Cc1cc(-c2ncc(C(F)(F)F)cn2)ccc1O[C@H]1O[C@H](CO)[C@@H](O)[C@H](O)[C@@H]1O [Example 15]	“+++” (50-200)	
OC[C@H]1O[C@H](Oc2ccc(-c3cc(C(F)(F)F)c(F)cn3)cc2C(F)(F)F)[C@@H](O)[C@@H](O)[C@@H]1O [Example 20]	“+++” (50-200)	
Cc1cc(-c2cnc(C(F)(F)F)c(F)c2)ccc1O[C@H]1O[C@H](CO)[C@@H](O)[C@H](O)[C@@H]1O [Example 21]	“+++” (50-200)	
Cc1cc(-c2cccc(C(F)(F)F)n2)ccc1O[C@H]1O[C@H](CO)[C@@H](O)[C@H](O)[C@@H]1O [Example 40]	“+++” (50-200)	
Cc1cc(-c2cnc(C3CC3)cn2)ccc1O[C@H]1O[C@H](CO)[C@@H](O)[C@H](O)[C@@H]1O [Example 12]	“++++” (<50)	PK DNAUC h * uM (DNAUC oral, dose normalized) [1]: “++” (0.1 ≤ × ≤ 0.2h · μM); bioavailability [1]: > 30%; Ue % (Ue % po) [1]: “++” (0.5 ≤ × ≤ 5%)
OC[C@H]1O[C@H](Oc2ccc(-c3ccc(C(F)(F)F)cn3)cc2C(F)(F)F)[C@@H](O)[C@@H](O)[C@@H]1O [Example 32]	“+++” (50-200)	
Cc1cc(-c2ccc(C(F)(F)F)nc2)ccc1O[C@H]1O[C@H](CO)[C@@H](O)[C@H](O)[C@@H]1O [Example 26]	“+++” (50-200)	
OC[C@H]1O[C@H](Oc2ccc(-c3cccc(C(F)(F)F)n3)cc2C(F)(F)F)[C@@H](O)[C@@H](O)[C@@H]1O [Example 39]	“+++” (50-200)	
OC[C@H]1O[C@H](Oc2ccc(-c3cnc(C(F)(F)F)cn3)cc2C(F)(F)F)[C@@H](O)[C@@H](O)[C@@H]1O [Example 3, (2R,3S,4S,5S,6R)-2-(Hydroxymethyl)-6-(2-(trifluoromethyl)-4-(5-(trifluoromethyl)pyrazin-2-yl)phenoxy)tetrahydro-2H-pyran-3,4,5-triol]	“+++” (50-200)	PK DNAUC h * uM (DNAUC oral, dose normalized) [1]: “++” (0.1 ≤ × ≤ 0.2h · μM); bioavailability [1]: 10 to 30%
Cc1cc(-c2ccnc(C(F)(F)F)c2)ccc1O[C@H]1O[C@H](CO)[C@@H](O)[C@H](O)[C@@H]1O [Example 24]	“+++” (50-200)	
Cc1cc(-c2ccc(C(F)(F)F)cn2)ccc1O[C@H]1O[C@H](CO)[C@@H](O)[C@H](O)[C@@H]1O [Example 27]	“+++” (50-200)	
OC[C@H]1O[C@H](Oc2ccc(-c3cnc(C(F)(F)F)cn3)cc2Cl)[C@@H](O)[C@@H](O)[C@@H]1O [Example 33]	“+++” (50-200)	
OC[C@H]1O[C@H](Oc2c(F)cc(-c3cnc(C(F)(F)F)cn3)cc2C(F)(F)F)[C@@H](O)[C@@H](O)[C@@H]1O [Example 2, (2R,3S,4S,5S,6R)-2-(2-Fluoro-6-(trifluoromethyl)-4-(5-(trifluoromethyl)pyrazin-2-yl)phenoxy)-6-(hydroxymethyl)tetrahydro-2H-pyran-3,4,5-triol]	“++++” (<50)	
Cc1cc(-c2nccnc2C(F)(F)F)ccc1O[C@H]1O[C@H](CO)[C@@H](O)[C@H](O)[C@@H]1O [Example 29]	“+++” (50-200)	
OC[C@H]1O[C@H](Oc2ccc(-c3ncc(C(F)(F)F)cn3)cc2C(F)(F)F)[C@@H](O)[C@@H](O)[C@@H]1O [Example 22]	“+++” (50-200)	
